In patent US10301305B2 (priority 2014, dated 2019):
Counter-ions that a name gives are not always drawn. Like-named read-outs stand apart in the source and are kept apart here.

Assays:
Format in all cases: biochemical
[1] = biological target: S. aureus DltA (Staphylococcus aureus (strain NCTC 8325 / PS 47), UniProt Q2FZW6); assay: in vitro DltA activity assay (luminescence), S. aureus DltA
Outline: (§1)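 His-tagged recombinant DltA (expressed in E. coli BL21, Ni-NTA purified) pre-incubated 30 min with inhibitor in 50 mM Hepes pH 8.0, MgCl2, KCl, Triton X-100, DTT. Reaction with 0.5 mM D-alanine, 0.5–5 µM ATP and pyrophosphatase for 1–2 h at RT, then residual ATP read by luciferase luminescence. IC50 from 6–10 concentrations, quench-corrected.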

[2] = biological target: E. feacalis DltA (Enterococcus faecalis, UniProt Q830N0); assay: in vitro DltA activity assay (luminescence), E. faecalis DltA
E. feacalis DltA, sequence (Q830N0 1-506): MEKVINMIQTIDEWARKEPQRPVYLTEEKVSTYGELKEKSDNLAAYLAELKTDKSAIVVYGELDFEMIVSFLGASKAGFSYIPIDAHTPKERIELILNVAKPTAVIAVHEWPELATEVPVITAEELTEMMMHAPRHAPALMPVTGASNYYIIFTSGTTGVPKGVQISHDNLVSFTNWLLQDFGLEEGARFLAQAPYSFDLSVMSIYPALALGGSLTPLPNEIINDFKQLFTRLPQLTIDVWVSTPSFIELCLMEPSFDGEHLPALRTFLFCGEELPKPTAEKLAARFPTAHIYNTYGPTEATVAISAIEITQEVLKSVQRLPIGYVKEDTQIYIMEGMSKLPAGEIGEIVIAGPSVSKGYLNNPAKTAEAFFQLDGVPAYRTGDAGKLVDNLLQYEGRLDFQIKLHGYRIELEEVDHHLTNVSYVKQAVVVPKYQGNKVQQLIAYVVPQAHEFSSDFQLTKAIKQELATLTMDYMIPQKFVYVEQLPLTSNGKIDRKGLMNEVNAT
Outline: as §1

[3] = biological target: S. Agalactiae DltA (Streptococcus agalactiae serotype III (strain NEM316), UniProt Q8VM67); assay: in vitro DltA activity assay (luminescence), S. agalactiae DltA
Outline: as §1

[4] = biological target: E. feacium DltA (Enterococcus faecium, UniProt Q3XZT7); assay: in vitro DltA activity assay (luminescence), E. faecium DltA
E. feacium DltA, sequence (Q3XZT7 1-504): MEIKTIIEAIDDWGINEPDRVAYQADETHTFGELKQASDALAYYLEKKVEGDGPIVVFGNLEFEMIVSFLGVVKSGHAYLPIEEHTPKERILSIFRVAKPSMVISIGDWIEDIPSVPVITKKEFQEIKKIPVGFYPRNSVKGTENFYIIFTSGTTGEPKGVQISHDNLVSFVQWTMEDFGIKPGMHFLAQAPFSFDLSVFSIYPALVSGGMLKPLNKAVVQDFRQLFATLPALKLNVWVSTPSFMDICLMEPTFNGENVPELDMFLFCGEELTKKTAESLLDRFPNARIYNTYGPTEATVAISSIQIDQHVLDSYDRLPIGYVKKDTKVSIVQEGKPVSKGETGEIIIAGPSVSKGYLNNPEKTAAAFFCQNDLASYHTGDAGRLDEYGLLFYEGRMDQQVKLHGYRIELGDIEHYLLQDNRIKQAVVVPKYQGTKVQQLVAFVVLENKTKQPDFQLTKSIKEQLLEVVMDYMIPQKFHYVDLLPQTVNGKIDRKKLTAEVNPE
Outline: as §1

[5] = recombinant DltA, 30 min pre-incubation, 0.5 mM D-Alanine, 0.5-5 μM ATP, read-out: S. aureus DltA IC50
[6] = recombinant DltA, 30 min pre-incubation, 0.5 mM D-Alanine, 0.5-5 μM ATP, read-out: E. feacalis DltA IC50
[7] = recombinant DltA, 30 min pre-incubation, 0.5 mM D-Alanine, 0.5-5 μM ATP, read-out: E. feacium DltA IC50
[8] = recombinant DltA, 30 min pre-incubation, 0.5 mM D-Alanine, 0.5-5 μM ATP, read-out: S. Agalactiae DltA IC50

Compound	IC50 [1]	IC50 [2]	IC50 [3]	IC50 [4]	IC50 [1, 5]	IC50 [2, 6]	IC50 [4, 7]	IC50 [3, 8]
NC(=O)c1c(OC[C@H]2CCCN2)cc(-c2ccc3c(c2)ncn3[C@@H]2CCCC[C@H]2F)c2nc[nH]c12 [Example 214, 7-[1-[(1R,2R)-2-fluorocyclohexyl]benzimidazol-5-yl]-5-[[(2R)-pyrrolidin-2-yl]methoxy]-3H-benzimidazole-4-carboxamide methanesulfonic acid salt]	4 nM	4 nM	390 nM	32 nM	–	–	–	–
CN1CCC[C@@H]1COc1cc(-c2ccc3c(c2)ncn3C2CCCOC2)c2nc[nH]c2c1C(N)=O (stereo partly drawn) [Example 215, 5-[[(2R)-1-methylpyrrolidin-2-yl]methoxy]-7-(1-tetrahydropyran-3-ylbenzimidazol-5-yl)-3H-benzimidazole-4-carboxamide methanesulfonic acid salt]	–	–	86 nM	–	0.8 nM	1.4 nM	5.7 nM	–
CN(C)C1CCCN(c2cc(-c3cnc4c(c3)CCCO4)c3nc[nH]c3c2C(N)=O)C1 (stereo not shown) [Example 222, 7-(3,4-dihydro-2H-pyrano[2,3-b]pyridin-6-yl)-5-[3-(dimethylamino)-1-piperidyl]-3H-benzimidazole-4-carboxamide]	–	–	–	–	47 nM	9 nM	67 nM	180 nM
CCn1cnc2cc(-c3cc(N(C)CCN(C)C)c(C(N)=O)c4[nH]cnc34)cc(F)c21 [Example 227, 5-[2-(dimethylamino)ethyl-methyl-amino]-7-(1-ethyl-7-fluoro-benzimidazol-5-yl)-3H-benzimidazole-4-carboxamide]	–	–	–	–	32 nM	30 nM	83 nM	1300 nM
CN(C)CCN(C)c1cc(-c2cncc(N3CCCC3)c2)c2nc[nH]c2c1C(N)=O [Example 230, 5-[2-(dimethylamino)ethyl-methyl-amino]-7-(5-pyrrolidin-1-yl-3-pyridyl)-3H-benzimidazole-4-carboxamide]	–	–	–	–	64 nM	30 nM	280 nM	2100 nM
CN1CCCC1COc1cc(-c2cnc3c(c2)CCCO3)c2nc[nH]c2c1C(N)=O (stereo not shown) [Example 233, 7-(3,4-dihydro-2H-pyrano[2,3-b]pyridin-6-yl)-5-[(1-methylpyrrolidin-2-yl)methoxy]-3H-benzimidazole-4-carboxamide methanesulfonic acid salt]	–	–	–	–	6.5 nM	4.7 nM	24 nM	130 nM
CN1CCC[C@@H]1COc1cc(-c2ccc3c(c2)ncn3C2CCCCC2)c2nc[nH]c2c1C(N)=O [Example 236, 7-(1-cyclohexylbenzimidazol-5-yl)-5-[[(2R)-1-methylpyrrolidin-2-yl]methoxy]-3H-benzimidazole-4-carboxamide methanesulfonic acid salt]	–	–	–	–	0.4 nM	1.4 nM	3.6 nM	91 nM
